These results are taken from US7402605B2, “8-azaprostaglandin derivative compounds and drugs containing the compounds as the active ingredient” (Ono Pharmaceutical Co., Ltd., priority 2002, dated 2008).

The Ki is a dissociation constant, usually derived from enzyme kinetics or from competition with a known ligand. Low readings indicate tighter binding, high ones weaker binding.

Molecules are shown by their SMILES.

The test addresses T1, mouse EP2 receptor (Mus musculus, UniProt Q62053).
T1 construct: expressed in transfected cells; host or cells: CHO cells (membrane fraction)
The experiment in a line: Receptor-binding experiment (3H-PGE2 displacement) using membranes of CHO cells expressing prostanoid receptor sub-type EP2. The note with it: inhibition of 3H-PGE2 (2.5 nM) binding, CHO cell membrane fraction, room temperature 1 hour, pH 6.0; Ki=IC50/(1+([C]/Kd)). Here is the method: (i) Experiment for Receptor-Binding Using Cells Which Express Prostanoid Receptor Sub-Types
According to the method of Sugimoto et al. (J. Biol. Chem., 267, 6463-6466 (1992)), CHO cells which expressed prostanoid receptor sub-types (murine EP1, EP2, EP3α, and EP4, respectively) were prepared and used as membrane authentic samples.
A reaction solution (200 μl) containing the prepared membrane fraction (0.5 mg/ml) and ^3H-PGE2 was incubated at room temperature for 1 hour. The reaction was terminated with ice cold buffer (3 ml), and the reaction mixture was filtered under suction through a glass filter (GF/B), on which the binding ^3H-PGE2 was trapped, and the binding radioactivity was measured by means of a liquid scintillator.
The Kd value was obtained from the Scatchard plots [Ann. N.Y. Acad. Sci., 51, 660 (1949)]. Non-specific binding was obtained as the binding in the presence of an excess amount (2.5 μM) of unlabelled PGE2. Measurement of the binding inhibition for ^3H-PGE2 with the compounds of the present invention was performed by adding ^3H-PGE2 (2.5 nM) and a series of concentrations of the compound of the present invention. In this reaction, the following buffer was used in all cases. • Buffer: 10 mM potassium phosphate (pH 6.0), 1 mM EDTA, 10 mM MgCl2, and 0.1M NaCl.
Dissociation constant Ki (μM) of each compound was calculated from the following equation. […]

T1 sequence (Q62053 whole entry): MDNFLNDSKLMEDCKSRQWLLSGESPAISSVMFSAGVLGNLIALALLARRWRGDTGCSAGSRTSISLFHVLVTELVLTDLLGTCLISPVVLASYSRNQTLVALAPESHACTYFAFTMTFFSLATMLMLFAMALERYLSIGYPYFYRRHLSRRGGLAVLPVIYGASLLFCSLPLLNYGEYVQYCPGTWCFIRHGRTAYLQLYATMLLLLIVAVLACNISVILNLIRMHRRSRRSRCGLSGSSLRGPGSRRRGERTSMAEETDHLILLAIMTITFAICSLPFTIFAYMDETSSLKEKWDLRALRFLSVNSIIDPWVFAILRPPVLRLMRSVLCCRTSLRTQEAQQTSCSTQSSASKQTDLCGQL

The molecule `CCCCc1ccc(C2CCC(=O)N2CCSc2nc(C(=O)O)cs2)cc1` (stereo not shown) [Example 4(1), 2-(2-(2-(4-n-butylphenyl)-5-oxopyrrolidin-1-yl)ethylthio)thiazole-4-carboxylic acid] registered a Ki of 0.014 µM.
